Test results taken from PubChem BioAssay AID330 (DTP/NCI, 2004).
Where “and” joins values, the source holds several entries; their conditions need not be identical. Equal values may be shown once. Toxic doses and inconclusive results are not listed. How the source made its calls: active means survival T/C of 150% or more; inactive means T/C below 125% in these data.

Test system: P388 leukemia ip, CD2F1 mice, survival T/C
Assay: NCI In Vivo Anticancer Drug Screen. Data for tumor model P388 Leukemia (intraperitoneal) in CD2F1 (CDF1) mice
Details: endpoint: median survival time, higher = longer survival
Method in brief: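 Mice carrying the transplanted tumor received test compound or vehicle. Survival was recorded in each group, and the value is the treated-group measurement divided by that of the vehicle-treated control group.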

[1] = dose: 25.0 mg/kg/injection, schedule: Q01DX009 (ip), vehicle: saline with Tween-80
[2] = dose: 50.0 mg/kg/injection, schedule: Q01DX009 (ip), vehicle: saline with Tween-80
[3] = dose: 100.0 mg/kg/injection, schedule: Q01DX009 (ip), vehicle: saline with Tween-80
[4] = dose: 120.0 mg/kg/injection, schedule: Q01DX005 (ip), vehicle: saline with Tween-80
[5] = dose: 240.0 mg/kg/injection, schedule: Q01DX005 (ip), vehicle: saline with Tween-80
[6] = dose: 50.0 mg/kg/injection, schedule: Q01DX009 (ip), vehicle: Klucel (hydroxypropylcellulose) (HPC)
[7] = dose: 100.0 mg/kg/injection, schedule: Q01DX009 (ip), vehicle: Klucel (hydroxypropylcellulose) (HPC)
[8] = dose: 50.0 mg/kg/injection, schedule: Q01DX009 (ip), vehicle: saline
[9] = dose: 100.0 mg/kg/injection, schedule: Q01DX009 (ip), vehicle: saline
[10] = dose: 60.0 mg/kg/injection, schedule: Q01DX005 (ip), vehicle: Klucel (hydroxypropylcellulose) (HPC)
[11] = dose: 120.0 mg/kg/injection, schedule: Q01DX005 (ip), vehicle: Klucel (hydroxypropylcellulose) (HPC)
[12] = dose: 240.0 mg/kg/injection, schedule: Q01DX005 (ip), vehicle: Klucel (hydroxypropylcellulose) (HPC)
[13] = dose: 100.0 mg/kg/injection, schedule: Q01DX001 (ip), vehicle: Klucel (hydroxypropylcellulose) (HPC)
[14] = dose: 200.0 mg/kg/injection, schedule: Q01DX001 (ip), vehicle: Klucel (hydroxypropylcellulose) (HPC)
[15] = dose: 400.0 mg/kg/injection, schedule: Q01DX001 (ip), vehicle: Klucel (hydroxypropylcellulose) (HPC)

Measured: T/C

O=C1C(Br)=Cc2cccc3cccc1c23
inactive: [1] 100 % of control | [2] 100 % of control | [3] 100 % of control

CCCCCc1cc(O)c2c(c1)OC(C)(CCC=C(C)C)C=C2 (stereo not drawn)
inactive: dose: 6.25 mg/kg/injection, schedule: Q01DX009 (ip), vehicle: saline with Tween-80 100 % of control | dose: 12.5 mg/kg/injection, schedule: Q01DX009 (ip), vehicle: saline with Tween-80 110 % of control | [1] 109 % of control | [2] 112 % of control

CC1=C/C(=C\C(=O)N2CCCCC2)N=C(N[N+](=O)[O-])N1
inactive: dose: 50.0 mg/kg/injection, schedule: Q01DX009 (ip), vehicle: distilled water + Tween-80 + alcohol 111 % of control | dose: 100.0 mg/kg/injection, schedule: Q01DX009 (ip), vehicle: distilled water + Tween-80 + alcohol 115 % of control | dose: 200.0 mg/kg/injection, schedule: Q01DX009 (ip), vehicle: distilled water + Tween-80 + alcohol 105 % of control

Cn1c(=S)[nH]c2sc3c(c2c1=O)CCCC3
inactive: [4] 97 % of control | [5] 96 % of control

C[CH2][Sn]([CH2]C)([S]CCS(=O)(=O)O)[S]CCS(=O)(=O)O (tested in a mixture with another compound)
inactive: dose: 7.5 mg/kg/injection, schedule: Q01DX005 (ip), vehicle: saline 123 % of control

ClC(Cl)(Cl)C(c1cccs1)c1cccs1
inactive: [6] 103 % of control | [7] 100 % of control | dose: 200.0 mg/kg/injection, schedule: Q01DX009 (ip), vehicle: Klucel (hydroxypropylcellulose) (HPC) 109 % of control | dose: 400.0 mg/kg/injection, schedule: Q01DX009 (ip), vehicle: Klucel (hydroxypropylcellulose) (HPC) 104 % of control

CCCCCCCCCCCCCCCOc1cc(OC)ccc1-c1nnc(SC)s1
inactive: [8] 100 % of control | [9] 91 % of control | dose: 200.0 mg/kg/injection, schedule: Q01DX009 (ip), vehicle: saline 100 % of control

CN(C)N=Nc1cccc(C(N)=O)c1
inactive: dose: 6.25 mg/kg/injection, schedule: Q01DX009 (ip), vehicle: Klucel (hydroxypropylcellulose) (HPC) 100 % of control | dose: 12.5 mg/kg/injection, schedule: Q01DX009 (ip), vehicle: Klucel (hydroxypropylcellulose) (HPC) 110 % of control | dose: 25.0 mg/kg/injection, schedule: Q01DX009 (ip), vehicle: Klucel (hydroxypropylcellulose) (HPC) 116 % of control | [6] 112 % of control | [7] 93 % of control

COc1cc(/C=C/C(C)=N/NC(N)=O)cc(OC)c1OC
inactive: dose: 30.0 mg/kg/injection, schedule: Q01DX005 (ip), vehicle: Klucel (hydroxypropylcellulose) (HPC) 103 % of control | [10] 100 % of control | [11] 103 % of control | [12] 104 % of control

O=[N+]([O-])c1cccc2nc(-c3ccccn3)n(CCc3ccncc3)c12
inactive: dose: 50.0 mg/kg/injection, schedule: Q01DX001 (ip), vehicle: Klucel (hydroxypropylcellulose) (HPC) 104 % of control | [13] 104 % of control | [14] 101 % of control

O=C(O)C1CCCCC1c1c2ccc(=O)cc-2oc2cc(O)ccc12 (stereo not drawn)
inactive: [3] 90 % of control | dose: 200.0 mg/kg/injection, schedule: Q01DX009 (ip), vehicle: saline with Tween-80 95 % of control | dose: 400.0 mg/kg/injection, schedule: Q01DX009 (ip), vehicle: saline with Tween-80 100 % of control

COc1cc2c(c(OC)c1OC)CCc1cn[nH]c1-2
inactive: [13] 116 % of control | [14] 123 % of control | [15] 116 % of control

CC(C)(CN)SCc1ccccc1
inactive: dose: 25.0 mg/kg/injection, schedule: Q01DX009 (ip), vehicle: saline 100 % of control | dose: 25.0 mg/kg/injection, schedule: Q04DX003 (ip), vehicle: saline 100 % of control | [8] 100 % of control | dose: 50.0 mg/kg/injection, schedule: Q04DX003 (ip), vehicle: saline 86 % of control | [9] 100 % of control | dose: 100.0 mg/kg/injection, schedule: Q04DX003 (ip), vehicle: saline 90 % of control

CC(C)(C)c1ccc2c(c1)C1=NC2=NC2=NC(=NC3=NC(=NC4=NC(=N1)c1ccc(C(C)(C)C)cc14)c1ccc(C(C)(C)C)cc13)c1ccc(C(C)(C)C)cc12
inactive: [13] 98 % of control | [14] 95 % of control | [15] 91 % of control

Cc1cc(C)cc(-n2cccc2C(=O)O)c1
inactive: dose: 60.0 mg/kg/injection, schedule: Q01DX005 (ip), vehicle: saline with Tween-80 93 % of control | [4] 99 % of control | [5] 100 % of control

Cc1cc(Cl)ccc1O/C(=C/C(=O)O)C(=O)O
inactive: [10] 100 % of control and 98 % of control | [11] 100 % of control and 95 % of control | [12] 101 % of control and 87 % of control
